Measured values: ChEMBL document CHEMBL4651402, “Screening of ~5500 FDA-approved drugs and clinical candidates for anti-SARS-CoV-2 activity” (2021)
Where a name gives a salt, the structure may show the parent alone.

Tested on: SARS-CoV-2
Assay: microbe, parasite or virus in culture
Conditions: Severe acute respiratory syndrome coronavirus 2, Vero C1008, 48 h

Structure (SMILES)	IC50 [µM]	IC50 (read-out: pIC50 (converted)) [µM]
COc1cc2ncnc(Nc3ccc(F)c(Cl)c3)c2cc1NC(=O)/C=C/CN1CCCCC1 [DACOMITINIB ANHYDROUS]	> 20	> 20
Nc1ccncc1 [DALFAMPRIDINE]	> 20	> 20
CN1C(=N)N(c2ccccc2)CC1=O [AZOLIMINE]	> 20	> 20
CC(C)CC1C(=O)N2CCCC2C2(O)OC(NC(=O)C3CC4c5cccc6[nH]cc(c56)CC4N(C)C3)(C(C)C)C(=O)N12 (stereo not drawn)	> 20	> 20
c1ccc2c(c1)CCCC2C1=NCCN1 (stereo not drawn) [TETRAHYDROZOLINE]	> 20	> 20
COc1cc(C(C)=O)ccc1O [APOCYNIN]	> 20	> 20
Nc1nc(=O)n([C@H]2C[C@H](O)[C@@H](CO)O2)cc1F	> 20	> 20
C[C@]12CC[C@H](O)C[C@H]1CC[C@@H]1[C@@H]2CC[C@]2(C)[C@@](O)(c3ccoc3)CC[C@]12O [ROSTAFUROXIN]	> 20	> 20
C[N+]1(C)[C@@H]2C[C@@H](OC(=O)[C@H](CO)c3ccccc3)C[C@H]1[C@@H]1O[C@@H]12 [METHSCOPOLAMINE]	> 20	> 20
CCCN[C@H]1CCc2nc(N)sc2C1 [PRAMIPEXOLE]	> 20	> 20
C[C@]1(Cn2ccnn2)[C@H](C(=O)O)N2C(=O)C[C@H]2S1(=O)=O [TAZOBACTAM]	> 20	> 20
CC(=O)OC1C=C2CCC3C(CCC4(C)C(OC(C)=O)CCC34)C2(C)CC1 (stereo not drawn)	> 20	> 20
CCCCCCCCCCCCCCCC(=O)OCC(O)CO (stereo not drawn) [GLYCEROL MONOPALMITATE]	> 20	> 20
Nc1nc(=O)n([C@@H]2O[C@H](CO)[C@@H](O)[C@H]2F)cc1I	> 20	> 20
COc1cc2c(cc1OC)C(CCc1ccc(Cl)cc1)N(C)CC2 (stereo not drawn) [METHOPHOLINE]	> 20	> 20
COC(=O)/C=C/C(=O)O [MONOMETHYL FUMARATE]	> 20	> 20
COc1ccc(/C=C/C(=O)Nc2ccccc2C(=O)O)cc1OC	> 20	> 20
O=C(Nc1cnccc1Cl)N1CCN(Cc2ccc3c(c2)OC(F)(F)O3)CC1 [JNJ-42165279]	> 20	> 20
NC(=O)CN1Cc2ccccc2OC1=O [CAROXAZONE]	> 20	> 20
CC(=O)c1cc2c(o1)C(=O)c1ccccc1C2=O [NAPABUCASIN]	> 20	> 20
CCn1cc(C(=O)O)c(=O)c2cnc(N3CCNCC3)nc21 [PIPEMIDIC ACID]	> 20	> 20
Nc1nc2ccc(OC(F)(F)F)cc2s1 [RILUZOLE]	> 20	> 20

Structure (SMILES)	IC50 [µM]	IC50 (read-out: pIC50 (converted)) [µM]
Nc1ccc(C(=O)N2CC3CC(CN(Cc4ccccc4)C3)C2)cc1 [AMBASILIDE]	> 20	> 20
C[n+]1cccc(C(=O)[O-])c1 [TRIGONELLINE]	> 20	> 20
C[N+]1(C)[C@@H]2CC[C@@H]1CC(OC(=O)C(CO)c1ccccc1)C2 (stereo partly drawn)	> 20	> 20
C/C=C1/[C@H](O[C@@H]2O[C@H](CO)[C@@H](O)[C@H](O)[C@H]2O)OC=C(C(=O)OC)[C@H]1CC(=O)OCCc1ccc(O)c(O)c1 [OLEUROPEIN]	> 20	> 20
O=C(O)CCC(=O)c1ccc(-c2ccccc2)cc1 [FENBUFEN]	> 20	> 20
CC[C@H]1CN2CCc3cc(OC)c(OC)cc3[C@@H]2C[C@@H]1C[C@H]1NCCc2cc(O)c(OC)cc21 [CEPHAELINE]	> 20	> 20
CC(C)c1cnn2c(NCc3ccccc3)cc(NC[C@H]3CCNC[C@@H]3O)nc12 [CT-7001]	> 20	> 20
CCOC(=O)[C@]1(c2ccccc2)CCC=C[C@H]1N(C)C [DEXTILIDINE]	> 20	> 20
CN1CCN(C(c2ccccc2)c2ccc(Cl)cc2)CC1 (stereo not drawn) [CHLORCYCLIZINE]	> 20	> 20
CC1=CC(=O)c2c(O)cccc2C1=O [PLUMBAGIN]	> 20	> 20
CCN1CCCC1CNC(=O)c1cc(S(N)(=O)=O)ccc1OC (stereo not drawn) [SULPIRIDE]	> 20	> 20
ClC1C(Cl)C(Cl)C(Cl)C(Cl)C1Cl (stereo not drawn)	> 20	> 20
O=C(N[C@@H]1CC[C@@H](c2cccc(F)c2F)CN(CC(F)(F)F)C1=O)N1CCC(n2c(=O)[nH]c3ncccc32)CC1 [TELCAGEPANT]	> 20	> 20
CN(C)C[C@@H]1CCn2cc(c3ccccc32)C2=C(C(=O)NC2=O)c2cn(c3ccccc23)CCO1 [RUBOXISTAURIN]	> 20	> 20
CC1(CN2CCC(n3c(=O)[nH]c4ccccc43)CC2)OCc2ccccc2-n2cccc21 (stereo not drawn) [ZALDARIDE]	> 20	> 20
Cc1c(NC(C)C)c(=O)n(-c2ccccc2)n1C [RAMIFENAZONE]	> 20	> 20
C=C(C)Cn1c(N)cc(=O)n(C)c1=O [AMISOMETRADINE]	> 20	> 20
COc1ccccc1CNCCCCCCNCCCCCCCCNCCCCCCNCc1ccccc1OC [METHOCTRAMINE]	> 20	> 20
Cc1ccc2c(c1)[C@H]1CN(C)CC[C@H]1N2 [STOBADINE]	> 20	> 20
Cc1nc2ccccc2n1Cc1ccc(Cl)cc1 [CHLORMIDAZOLE]	> 20	> 20
COc1cc2c(cc1OC)[C@@]13CCN4CC5=CCO[C@H]6CC(=O)N2[C@H]1[C@H]6[C@H]5C[C@H]43 [BRUCINE]	> 20	> 20
CN(C)CCCN1c2ccccc2Sc2ccc(C(F)(F)F)cc21 [TRIFLUPROMAZINE]	> 20	> 20

Structure (SMILES)	IC50 [µM]	IC50 (read-out: pIC50 (converted)) [µM]
CC12CCC3C4CCC(=O)C=C4CCC3C1CCC2=O (stereo not drawn)	> 20	> 20
CS(=O)(=O)c1ccc(C2=C(c3ccccc3)C(=O)OC2)cc1 [ROFECOXIB]	> 20	> 20
CCC(CO)NC(=O)[C@@H]1C=C2c3cccc4[nH]cc(c34)CC2N(C)C1 (stereo partly drawn)	> 20	> 20
CN(C)N=Nc1ccc(C(=O)O)cc1	> 20	> 20
CC/C=C\C/C=C\C/C=C\C/C=C\C/C=C\C/C=C\CCC(=O)O [DOCONEXENT]	> 20	> 20
CCN(Cc1ccncc1)C(=O)C(CO)c1ccccc1 (stereo not drawn) [TROPICAMIDE]	> 20	> 20
O=C(O)Cc1ccc(OCCNCC(O)c2ccccc2)cc1 (stereo not drawn)	> 20	> 20
CCc1ccc(OCc2ccccc2C(=O)Nc2ccc3nc(C)cc(N)c3c2)cc1	> 20	> 20
COc1ccc(Cl)c2c1CCCC2N(C)C (stereo not drawn) [LOMETRALINE]	> 20	> 20
NC(=O)OCC(O)c1ccccc1 (stereo not drawn) [STYRAMATE]	> 20	> 20
Nc1cc(-c2ccncc2)c[nH]c1=O [INAMRINONE]	> 20	> 20
O=[N+]([O-])O[C@@H]1CO[C@H]2[C@@H]1OC[C@@H]2O [ISOSORBIDE MONONITRATE]	> 20	> 20
CN1C(=O)N(C)C2C1N(C)C(=O)N2C (stereo not drawn) [MEBICAR]	> 20	> 20
COC1=C(OC)C(=O)C(C/C=C(\C)CC/C=C(\C)CC/C=C(\C)CC/C=C(\C)CC/C=C(\C)CC/C=C(\C)CC/C=C(\C)CC/C=C(\C)CC/C=C(\C)CCC=C(C)C)=C(C)C1=O [UBIDECARENONE]	> 20	> 20
CCCC[C@](C)(CO)Nc1nc(N)nc2cc(F)cnc12 [SELGANTOLIMOD]	> 20	> 20
CCc1nc(C)ccc1O [EMOXYPINE]	> 20	> 20
CCc1nc2c(N)nc3ccccc3c2n1CCCCNS(C)(=O)=O [CPG-52852]	> 20	> 20
C[C@]12C=CC(=O)C=C1CCC1C2C(O)C[C@@]2(C)C1CC[C@]2(O)C(=O)COC(=O)c1cccc(S(=O)(=O)O)c1 (stereo partly drawn)	> 20	> 20
C[C@@H]1CCC[C@H](C)N1NC(=O)c1ccc(Cl)c(S(N)(=O)=O)c1 [CLOPAMIDE]	> 20	> 20
CC(C)Oc1ccccc1N1CCN(Cc2cccc(C(=O)N3CCCCC3)c2)CC1 [MAZAPERTINE]	> 20	> 20
